Reference: ChEMBL document CHEMBL3217648, “Glycosylated porphyrin derivatives and their photodynamic activity in cancer cells” (Medchemcomm, 2011)
The source made the active and inactive calls. The rule behind the calls is not given here.

Experiments:
HeLa [1] = assay: Phototoxicity against human HeLa cells at 1 uM after 24 hrs followed by halogen light irradiation by MTS assay; assay type: functional, cell-based
HCT-116 = assay: Phototoxicity against human HCT116 cells at 1 uM after 24 hrs followed by halogen light irradiation by MTS assay; assay type: functional, cell-based
[2] = Dark toxicity against human HeLa cells assessed as cell viability at 1 uM after 24 hrs by MTS assay; assay type: cell-based; details: read-out: Survival
[3] = Dark toxicity against human HCT116 cells assessed as cell viability at 1 uM after 24 hrs by MTS assay; assay type: cell-based, HCT-116; details: read-out: Survival
HeLa [4] = assay: Cellular uptake in human HeLa cells at 1 uM after 24 hrs by fluorescence microscopy; assay type: ADME, cell-based

| SMILES | Activity (HeLa [1]) | Activity (HCT-116) | viability at 24 h, 1 µM [2] | viability at 24 h, 1 µM [3] | Drug uptake (HeLa [4]) |
| --- | --- | --- | --- | --- | --- |
| COc1cccc(OC)c1-c1c2nc(c([C@H]3O[C@@H]4OC(C)(C)O[C@@H]4[C@H]4OC(C)(C)O[C@H]43)c3ccc([nH]3)c(-c3c(OC)cccc3OC)c3nc(c([C@H]4O[C@@H]5OC(C)(C)O[C@@H]5[C@H]5OC(C)(C)O[C@H]54)c4ccc1[nH]4)C=C3)C=C2 | inactive | inactive |  |  |  |
| CC1(C)O[C@H]2[C@@H](O1)[C@@H](C=O)O[C@@H]1OC(C)(C)O[C@@H]12 | inactive | inactive |  |  |  |
| CC1(C)O[C@H]2[C@@H](O1)[C@@H](c1c3nc(c(-c4ccc(OC(F)(F)F)cc4)c4ccc([nH]4)c([C@H]4O[C@@H]5OC(C)(C)O[C@@H]5[C@H]5OC(C)(C)O[C@H]54)c4nc(c(-c5ccc(OC(F)(F)F)cc5)c5ccc1[nH]5)C=C4)C=C3)O[C@@H]1OC(C)(C)O[C@@H]12 | inactive | inactive |  |  |  |
| CC1(C)O[C@H]2[C@@H](O1)[C@@H](c1c3nc(c(-c4ccc(Cl)cc4)c4ccc([nH]4)c([C@H]4O[C@@H]5OC(C)(C)O[C@@H]5[C@H]5OC(C)(C)O[C@H]54)c4nc(c(-c5ccc(Cl)cc5)c5ccc1[nH]5)C=C4)C=C3)O[C@@H]1OC(C)(C)O[C@@H]12 | inactive | inactive |  |  |  |
| COc1ccc(-c2c3nc(c([C@H]4O[C@@H]5OC(C)(C)O[C@@H]5[C@H]5OC(C)(C)O[C@H]54)c4ccc([nH]4)c(-c4ccc(OC)cc4)c4nc(c([C@H]5O[C@@H]6OC(C)(C)O[C@@H]6[C@H]6OC(C)(C)O[C@H]65)c5ccc2[nH]5)C=C4)C=C3)cc1 | Active | Active | > 90% | > 90% | Not Active |
| CSc1ccc(-c2c3nc(c([C@H]4O[C@@H]5OC(C)(C)O[C@@H]5[C@H]5OC(C)(C)O[C@H]54)c4ccc([nH]4)c(-c4ccc(SC)cc4)c4nc(c([C@H]5O[C@@H]6OC(C)(C)O[C@@H]6[C@H]6OC(C)(C)O[C@H]65)c5ccc2[nH]5)C=C4)C=C3)cc1 | Active | Active | > 90% | > 90% | Not Active |
| CC1(C)O[C@H]2[C@@H](O1)[C@@H](c1c3nc(c(-c4ccccc4)c4ccc([nH]4)c([C@H]4O[C@@H]5OC(C)(C)O[C@@H]5[C@H]5OC(C)(C)O[C@H]54)c4nc(c(-c5ccccc5)c5ccc1[nH]5)C=C4)C=C3)O[C@@H]1OC(C)(C)O[C@@H]12 | inactive | inactive |  |  |  |
| CC1(C)O[C@H]2[C@@H](O1)[C@@H](c1c3nc(c(-c4c(F)c(F)c(F)c(F)c4F)c4ccc([nH]4)c([C@H]4O[C@@H]5OC(C)(C)O[C@@H]5[C@H]5OC(C)(C)O[C@H]54)c4nc(c(-c5c(F)c(F)c(F)c(F)c5F)c5ccc1[nH]5)C=C4)C=C3)O[C@@H]1OC(C)(C)O[C@@H]12 | inactive | inactive |  |  |  |
| CC1(C)O[C@H]2[C@@H](O1)[C@@H](c1c3nc(c(-c4ccsc4)c4ccc([nH]4)c([C@H]4O[C@@H]5OC(C)(C)O[C@@H]5[C@H]5OC(C)(C)O[C@H]54)c4nc(c(-c5ccsc5)c5ccc1[nH]5)C=C4)C=C3)O[C@@H]1OC(C)(C)O[C@@H]12 | Active | Active | > 90% | > 90% | Active |
| CC1(C)O[C@H]2[C@@H](O1)[C@@H](c1c3nc(c(-c4ccc([N+](=O)[O-])cc4)c4ccc([nH]4)c([C@H]4O[C@@H]5OC(C)(C)O[C@@H]5[C@H]5OC(C)(C)O[C@H]54)c4nc(c(-c5ccc([N+](=O)[O-])cc5)c5ccc1[nH]5)C=C4)C=C3)O[C@@H]1OC(C)(C)O[C@@H]12 | inactive | inactive |  |  |  |
